Results as given in patent US8722718B2, “Inhibitors of C-FMS kinase” (Janssen Pharmaceutica NV, priority 2006, dated 2014).

Columns and labels:
[1] = target: c-fms (Homo sapiens (Human), UniProt P07333); assay: c-fms autophosphorylation fluorescence polarization competition immunoassay (1 nM c-fms; peptide Pi assay); assay type: biochemical; settings: read-out: 1 nM c-fms, peptide Pi assay IC-50
Description: Fluorescence Polarization Competition Immunoassay
The assay buffer used was 100 mM 4-(2-hydroxyethyl)piperazine 1-ethanesulfonic acid (HEPES), pH 7.5, 1 mM 1,4-dithio-DL-threitol (DTT), 0.01% (v/v) Tween-20. Compounds were diluted in assay buffer containing 4% dimethylsulfoxide (DMSO) just prior to the assay. […] The kinase reaction was initiated by adding 2 μL of 5 mM ATP (Sigma) in assay buffer. […] Control reactions were ran in each plate: in positive and negative control wells, assay buffer (made 4% in DMSO) was substituted for the compound; in addition, positive control wells received 1.2 μL of 50 mM ethylenediaminetetraaceticacid (EDTA).
The plates were incubated at room temperature for 45 min. At the end of the incubation, the reaction was quenched with 1.2 μL of 50 mM EDTA (EDTA was not added to the positive control wells at this point; see above). Following a 5-min incubation, each well received 10 μL of a 1:1:3 mixture of anti-phosphotyrosine antibody, 10×, PTK green tracer, 10× (vortexed), FP dilution buffer, respectively (all from PanVera, cat. #P2837). The plate was covered, incubated for 30 min at room temperature and the fluorescence polarization was read on the Analyst. The instrument settings were: 485 nm excitation filter; 530 nm emission filter; Z height: middle of well; G factor: 0.93. […] The reported IC50 values are averages of three independent measurements.

[2] = system: mouse bone-marrow derived macrophages (BMDM); assay: CSF-1-driven mouse bone-marrow derived macrophages proliferation assay (BrDU incorporation); assay type: cell-based; settings: mCSF driven proliferation, read-out: mCSF driven proliferation BMDM (Mouse) IC-50
Description: CSF-1-Driven Mouse Bone-Marrow Derived Macrophages Assay
Macrophages are derived by culturing mouse bone marrow in alpha-MEM supplemented with 10% FCS and 50 ng/ml recombinant mouse CSF-1 in bacteriologic dishes. On the sixth day, macrophages are detached from dishes, washed, and resuspended to 0.05 million cells/ml in alpha-MEM containing 10% FCS. One hundred ul of cell suspension are distributed per well into 96 well culture plates. Wells are further supplemented with the addition of 50 ul media containing 15 ng/ml CSF-1, 3 uM Indomethacin, and 3× of a dilution series of test compounds. The cells are cultured for 30 hrs at 37 degrees and 5% CO2. During the final six hours, cultures are supplemented with an additional 30 ul of media containing a 1:500 dilution of bromodeoxyuridine (BrDU). At the end of the culture period, the plates are spun at 1000 RPM for 1 minute and 130 ul of media is removed with a pipet and replaced with 150 ul of fixative solution for 1 hour @ room temperature. The fixative is then dispelled from the plates and the plates allowed to air dry. Incorporation of BrDU into the fixed, dried cells is quantified using a specific ELISA.

Chain of c-fms (P07333 20-972): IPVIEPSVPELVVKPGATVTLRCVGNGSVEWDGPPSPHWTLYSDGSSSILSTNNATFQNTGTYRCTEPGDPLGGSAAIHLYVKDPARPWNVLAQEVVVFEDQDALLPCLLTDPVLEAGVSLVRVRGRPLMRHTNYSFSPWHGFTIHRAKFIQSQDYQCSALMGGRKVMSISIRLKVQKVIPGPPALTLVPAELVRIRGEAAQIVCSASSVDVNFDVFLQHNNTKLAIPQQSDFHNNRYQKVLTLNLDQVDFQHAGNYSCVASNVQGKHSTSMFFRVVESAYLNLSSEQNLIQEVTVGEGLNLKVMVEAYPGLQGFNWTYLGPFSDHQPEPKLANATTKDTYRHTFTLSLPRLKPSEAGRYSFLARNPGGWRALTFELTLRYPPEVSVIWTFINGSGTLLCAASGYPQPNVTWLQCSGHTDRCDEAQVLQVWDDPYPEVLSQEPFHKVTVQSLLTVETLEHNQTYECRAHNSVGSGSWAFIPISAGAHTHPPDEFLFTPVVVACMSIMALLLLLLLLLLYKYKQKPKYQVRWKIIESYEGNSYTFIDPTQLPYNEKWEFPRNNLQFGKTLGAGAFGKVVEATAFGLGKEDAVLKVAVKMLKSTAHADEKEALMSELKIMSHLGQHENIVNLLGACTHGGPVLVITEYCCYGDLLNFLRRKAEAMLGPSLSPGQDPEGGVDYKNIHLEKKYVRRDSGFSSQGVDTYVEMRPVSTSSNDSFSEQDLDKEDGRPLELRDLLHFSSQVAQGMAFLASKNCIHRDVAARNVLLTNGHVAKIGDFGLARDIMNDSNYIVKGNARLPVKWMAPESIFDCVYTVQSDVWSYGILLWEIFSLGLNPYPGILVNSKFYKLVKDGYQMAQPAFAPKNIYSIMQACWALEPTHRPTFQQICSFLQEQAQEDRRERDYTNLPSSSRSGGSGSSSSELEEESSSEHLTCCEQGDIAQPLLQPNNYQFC

CC1(c2ccc(NC(=O)c3ncc(C#N)[nH]3)c(C3=CCCCC3)c2)OCCO1 [Example 1, 5-Cyano-1H-imidazole-2-carboxylic acid [2-cyclohex-1-enyl-4-(2-methyl-[1,3]dioxolan-2-yl)-phenyl]-amide]
IC50 [1]: 3.4 nM | IC50 [2]: 48 nM

CC1(c2ccc(NC(=O)c3nc(C#N)c[nH]3)c(C3=CCCCC3)c2)OCCCO1 [Example 2, 4-Cyano-1H-imidazole-2-carboxylic acid [2-cyclohex-1-enyl-4-(2-methyl-[1,3]dioxan-2-yl)-phenyl]-amide]
IC50 [1]: 3.9 nM | IC50 [2]: 44 nM
